Values of other authors, collected in patent publication US20060035976A1, “Methods of preventing headaches with norepinephrine precursors” (priority 2002, published 2006).

Tests used:
migraine attacks = settings: 100 mg/day; person with Parkinson's disease, concurrently on L-DOPA, benserazide and amantadine
pain = settings: 100 mg; including a patient experiencing a cluster headache

SMILES	time that increased plasma levels of DOPS and NE remain (after oral administration of DOPS)	time of peak NE levels (after oral ingestion of DOPS) [h]	time of peak plasma levels of DOPS (after oral ingestion of DOPS) [h]	specific uptake of DOPS (microvessel preparations)	migraine attacks (patient report) (migraine attacks)	analgesic effects (pain)
N[C@H](C(=O)O)[C@H](O)c1ccc(O)c(O)c1 [DOPS, Threo-3-(3,4-dihydroxyphenyl)serine]	at least 12 hours	5	3	Specific uptake of DOPS has also been demonstrated		
N[C@H](C(=O)O)[C@H](O)c1ccc(O)c(O)c1 [L-DOPS]					migraine attacks were resolved	alleged analgesic effects
